Assays:
hIL-6 mRNA = test: Inhibition of hIL-6 mRNA transcription in LPS-stimulated U937 macrophages; assay type: cell-based, human; design: key: Active: Compounds with an IC50 value less than 30 μM were deemed to be active.; Not Active: Compounds with an IC50 value less than 30 μM were deemed to be active; conditions: U937 cells differentiated with PMA, LPS stimulation, 3 h
Method: In this example, hIL-6 mRNA in tissue culture cells was quantitated to measure the transcriptional inhibition of hIL-6 when treated with a compound of the present disclosure.
A human leukemic monocyte lymphoma cell line (U937) was plated (3.2×10^4 cells per well) in a 96-well plate in 100 μL RPMI-1640 containing 10% FBS and penicillin/streptomycin, and differentiated into macrophages for 3 days in 60 ng/mL PMA ([…]) at 37° C. in 5% CO2 prior to the addition of the compound of interest. The cells were pretreated for 1 h with the test compound prior to stimulation with 1 ug/mL lipopolysaccharide from Escherichia coli. The cells were incubated at 37° C. for 3 h before the cells were harvested. At time of harvest, the spent media was removed from the cells and the cells were rinsed in 200 μL PBS. Cell lysis solution (70 μL) was added the cells in each well and incubated for 5-10 min at room temperature, to allow for complete cell lysis and detachment. mRNA was then prepared using the “mRNA Catcher PLUS plate” (Invitrogen), according to the protocol supplied. After the last wash, as much wash buffer as possible was aspirated without allowing the wells to dry. Elution buffer (E3, 70 μL) was then added to each well. mRNA was then eluted by incubating the mRNA Catcher PLUS plate with Elution Buffer for 5 min at 68° C. and then immediately placing the plate on ice.
The eluted mRNA isolated was then used in a one-step quantitative real-time PCR reaction, using components of the Ultra Sense Kit together with Applied Biosystems primer-probe mixes. Real-time PCR data was analyzed, normalizing the Ct values for hIL-6 to an internal control, prior to determining the fold induction of each unknown sample, relative to the control.

human AML MV-4-11 cells = test: Inhibition of cell proliferation in cancer cell lines (CellTiter Aqueous One); assay type: cell-based; design: key: Active: Compounds with an IC50 value less than 30 μM were deemed to be active.; Not Active: Compounds with an IC50 value less than 30 μM were deemed to be active; conditions: 72 h
Method: MV4-11 cells: 96-well plates were seeded with 5×10^4 cells per well of exponentially growing human AML MV-4-11 (CRL-9591) cells and immediately treated with two-fold dilutions of test compounds, ranging from 30 μM to 0.2 μM. Triplicate wells were used for each concentration, as well as a media only and three DMSO control wells. The cells and compounds were incubated at 37° C., 5% CO2 for 72 h before adding 20 μL of the CellTiter Aqueous One Solution (Promega) to each well and incubating at 37° C., 5% CO2 for an additional 3-4 h. The absorbance was taken at 490 nm in a spectrophotometer and the percentage of proliferation relative to DMSO-treated cells was calculated after correction from the blank well. IC50 were calculated using the GraphPad Prism software.

[1] = target: T1, Brd4 bromodomain 1 (BRD4(1)) (Homo sapiens, UniProt O60885); test: Inhibition of tetra-acetylated histone H4 binding to BET bromodomains (TR-FRET); design: key: Active: Compounds with an IC50 value less than 30 μM were deemed to be active.; Not Active: Compounds with an IC50 value less than 30 μM were deemed to be active; conditions: first bromodomain of Brd4, tetra-acetylated histone H4 peptide
T1 construct: made in house; host or cells: E. coli BL21(DE3)
Procedure, shortened: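 N-terminally His-tagged bromodomain (200 nM) from E. coli was mixed with biotinylated tetra-acetylated histone H4 peptide (25-50 nM), Eu-streptavidin and XL665 anti-His, plus compound, in HEPES pH 7.4 buffer with 0.2% DMSO. After 2 h at room temperature, the 665/620 nm TR-FRET decrease gave IC50 from dose-response curves.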

c-myc in MV4-11 cells = test: Inhibition of c-myc expression in cancer cell lines (mRNA, real-time PCR); assay type: cell-based, Human; design: key: Active: Compounds with an IC50 value less than 30 μM were deemed to be active.; Not Active: Compounds with an IC50 value less than 30 μM were deemed to be active; conditions: 3 h
Method: MV4-11 cells (2.5×10^4 cells) were plated in 96 well U-bottom plates with test compound or DMSO (0.1%), and incubated for 3 h at 37° C. Cells were then harvested by centrifugation, lysed, and mRNA was isolated using the mRNA catcher plus kit (Invitrogen). Reverse transcription of the mRNA and duplex amplification of the c-myc and cyclophilin cDNAs was performed using the RNA Ultrasense kit (Invitrogen) and a ViiA7 real-time PCR machine (Applied Biosystems). IC50 values were determined from a dose response curve.

SMILES | IL-6 activity (IC50 < 30 μM) (hIL-6 mRNA) | melting point | Cell Proliferation activity (IC50 < 30 μM) (human AML MV-4-11 cells) | FRET activity BRD4(1) [1] | c-myc activity (IC50 < 30 μM) (c-myc in MV4-11 cells)
COc1cc(OC)c2c(=O)[nH]c(-c3ncc(OCCO)cc3NC3CCN(C(=O)C(C)C)CC3)nc2c1 [Example 64, 2-[5-(2-Hydroxyethoxy)-3-(1-isobutyroylpiperidin-4-ylamino)pyridin-2-yl]-5,7-dimethoxyquinazolin-4(3H)-one] | Active | 173 to 176 °C | Active | Active | Active
CCNc1cc(OC)c2c(=O)[nH]c(-c3ncccc3NC3CCN(C(C)C)CC3)nc2c1 [Example 69, 7-(Ethylamino)-2-(3-((1-isopropylpiperidin-4-yl)amino)pyridin-2-yl)-5-methoxyquinazolin-4(3H)-one] | Active | 219 to 221 °C | Active | Active | Active
COc1ccc(-c2nc3cc(OC)cc(OC)c3c(=O)[nH]2)c(NCCN2CCN(C(C)C)CC2)c1 [Example 22, 2-(2-((2-(4-Isopropylpiperazin-1-yl)ethyl)amino)-4-methoxyphenyl)-5,7-dimethoxyquinazolin-4(3H)-one] | Active | 227 to 228 °C | Active | Active | Active
COc1ccc(-c2nc3cc(OC)cc(OC)c3c(=O)[nH]2)c(NCC2CCN(C)C2)c1 (stereo not shown) [Example 7, 5,7-Dimethoxy-2-(4-methoxy-2-(((1-methylpyrrolidin-3-yl)methyl)amino)phenyl)-quinazolin-4(3H)-one] | Active | 233 to 235 °C | Active | Active | Active
COc1cc(OC)c2c(=O)[nH]c(-c3ncccc3NCCCNC(=O)C(C)C)nc2c1 [Example 57, N-(3-((2-(5,7-Dimethoxy-4-oxo-3,4-dihydroquinazolin-2-yl)pyridin-3-yl)amino)propyl)isobutyramide] | Active | 230 to 231 °C | Not Active | Active | Active
COc1ccc(-c2nc3cc(OC)cc(OC)c3c(=O)[nH]2)c(NCCNC(C)C)c1 [Example 8, 2-(2-((2-(Isopropylamino)ethyl)amino)-4-methoxyphenyl)-5,7-dimethoxyquinazolin-4(3H)-one] | Active | 262 to 264 °C | Active | Active | Active
COc1cc(OC)c2c(=O)[nH]c(-c3ncccc3NC3CCN(C(=O)C(C)(C)C)CC3)nc2c1 [Example 48, 5,7-Dimethoxy-2-(3-((1-pivaloylpiperidin-4-yl)amino)pyridin-2-yl)quinazolin-4(3H)-one] | Active | 209 to 210 °C | Active | Active | Active
COC(=O)C(=O)N1CCC(Nc2cccnc2-c2nc3cc(OC)cc(OC)c3c(=O)[nH]2)CC1 [Example 55, Methyl-2-(4-((2-(5,7-dimethoxy-4-oxo-3,4-dihydroquinazolin-2-yl)pyridin-3-yl)amino)piperidin-1-yl)-2-oxoacetate] | Active | 165 to 166 °C | Active | Active | Active
COc1ccc(-c2nc3cc(OC)cc(OC)c3c(=O)[nH]2)c(NCCCN2CCNCC2)c1 [Example 28, 5,7-Dimethoxy-2-(4-methoxy-2-[3-(piperazin-1-yl)propylamino]phenyl)quinazolin-4(3H)-one] | Active | 225 to 228 °C | Active | Active | Active
COc1cc(OC)c2c(=O)[nH]c(-c3ncccc3NC3CCN(C(C)C)CC3)nc2c1 [Example 18, 2-(3-((1-Isopropylpiperidin-4-yl)amino)pyridin-2-yl)-5,7-dimethoxyquinazolin-4(3H)-one] | Active | 170 to 172 °C | Active | Active | Active
COc1cc(OC)c2c(=O)[nH]c(-c3ncccc3NC3CCN(C(=O)C(F)(F)F)CC3)nc2c1 [Example 46, 5,7-Dimethoxy-2-(3-((1-(2,2,2-trifluoroacetyl)piperidin-4-yl)amino)pyridin-2-yl)quinazolin-4(3H)-one] | Active | 218 to 219 °C | Active | Active | Active

Reference: US10500209B2, “Quinazolinones as bromodomain inhibitors” (Zenith Epigenetics Ltd., priority 2013, dated 2019)
